According to paper PMC6145916, “Interaction of mitochondrial fission factor with dynamin related protein 1 governs physiological mitochondrial function in vivo” (Scientific Reports, 2018):

What was measured:
[1] = system: neuroblastoma SH-SY5Y cells; assay: Mitochondrial morphology (Tom20 immunofluorescence), SH-SY5Y; assay type: cell-based, human; conditions: 4 µM TAT-P259 or 10 µM Mdivi-1, 30-minute treatment; n = 3, 10 images each
Procedure: Represented Western blot is cropped from a full blot shown in the Expanded Western Blots section of the Supplementary Information. […] Hoechst 33342 is shown in blue and Tom20 in green (n = 3, 10 images each). Below, quantification of the form factor (degree of branching) and major axis length (length of mitochondria). At least 6,000 mitochondrial fragments were measured for each condition. Mitochondrial reactive oxygen species (ROS) production (MitoSox Red) (c) and mitochondrial membrane potential (TMRM) (d) after overnight treatment with indicated concentrations of peptide or FCCP. Data are from 3 independent experiments per condition normalized to the average no peptide value. (e) Relative mitochondrial ROS (MitoSox Red) signal in GFP positive cells expressing full-length or alanine-substituted P259 at indicated amino acids after two days of transfection. Values are normalized to a GFP empty vector (n = 3, with 3 replicates). […] Data are mean ± s.e. […]
Cells were fixed onto Permanox plastic slides with 4% paraformaldehyde in PBS for 10 minutes at room temperature. Cells were permeabilized in 0.1% Triton X-100 and 1% normal goat serum (blocking buffer) for one hour at room temperature. Permeabilized cells were incubated overnight with primary anti-Tom20 antibody (Santa Cruze Biotech, sc-11415, 1:250 dilution) in a humidified chamber. Slides were subsequently incubated with FITC-conjugated goat anti-rabbit IgG for two hours at room temperature in a light-shielding humidified chamber. Cells were washed with blocking buffer and stained with Hoechst 33342 (Invitrogen, OR, USA, […]). Coverslips were mounted with a Slowfade antifade solution (Invitrogen, OR, USA). Images were acquired using an LSM 700 confocal laser-s canning microsc ope equipped with a Plan Apochromat 63x/1.4 NA oil-immersion objective (Zeiss).
Mitochondrial morphology analysis
High-throughput image analysis of mitochondrial morphology was performed using MATLAB with the Image Processing toolkit. Background illumination, obtained by morphological opening of the image, was subtracted from the original image. The image was then passed through a top - hat transformation to highlight objects from the background followed by a pixel-wis e adaptive low-pas s Wiener filter to remove noise. A 90th percentile threshold was used to convert the image to a binary image. Erroneously large and small objects were removed from the image and morphological features were extracted from the binary objects. Major axis length is defined as th e length of the longest line that can be drawn through a binary object while the minor axis length is defined as the length of the shortest line. The aspect ratio is defined by the major axis length divided by the minor axis length. […]

Drp1 = conditions: cited from earlier work
Source text: However, Mdivi-1 cannot distinguish between Drp1′s physiological and pathological activities. […] Strikingly, while inhibiting the interaction between Drp1 and Fis1 slo ...

SH-SY5Y cells = assay: Mitochondrial ROS (MitoSox Red) in GFP positive SH-SY5Y cells expressing P259 or alanine-substituted P259; assay type: cell-based, human; conditions: P259 sequence alone (no TAT carrier) expressed from vector, two days, relative to empty GFP vector; n = 3, with 3 replicates
Procedure: Represented Western blot is cropped from a full blot shown in the Expanded Western Blots section of the Supplementary Information. […] Hoechst 33342 is shown in blue and Tom20 in green (n = 3, 10 images each). Below, quantification of the form factor (degree of branching) and major axis length (length of mitochondria). At least 6,000 mitochondrial fragments were measured for each condition. Mitochondrial reactive oxygen species (ROS) production (MitoSox Red) (c) and mitochondrial membrane potential (TMRM) (d) after overnight treatment with indicated concentrations of peptide or FCCP. Data are from 3 independent experiments per condition normalized to the average no peptide value. (e) Relative mitochondrial ROS (MitoSox Red) signal in GFP positive cells expressing full-length or alanine-substituted P259 at indicated amino acids after two days of transfection. Values are normalized to a GFP empty vector (n = 3, with 3 replicates). […] Data are mean ± s.e.
Using mitochondrial ROS as a phenotypic output, we determined which residues of P259 were necessary for its function.
DMI6000B inverted microscope. All mitochondria were imaged with a GFP fi lter. Then, green […]
filter every 30 seconds for 5 minutes. […]
GFP filter (Keyence). […] The GFP and MitoSox signals were measured in a ring around each nucleus. Average MitoSox levels were quantified in […]

[2] = target: T1, recombinant human Drp1 (dynamin related protein 1) (human, UniProt O00429 1-736); assay: graphene surface with transistors measuring electrical conductance; conditions: both partners purified
T1 construct: dynamin related protein 1 (Drp1), human, recombinant; details may stand in the Supplementary Methods; also called recombinant Drp1
T1 sequence (O00429 whole entry): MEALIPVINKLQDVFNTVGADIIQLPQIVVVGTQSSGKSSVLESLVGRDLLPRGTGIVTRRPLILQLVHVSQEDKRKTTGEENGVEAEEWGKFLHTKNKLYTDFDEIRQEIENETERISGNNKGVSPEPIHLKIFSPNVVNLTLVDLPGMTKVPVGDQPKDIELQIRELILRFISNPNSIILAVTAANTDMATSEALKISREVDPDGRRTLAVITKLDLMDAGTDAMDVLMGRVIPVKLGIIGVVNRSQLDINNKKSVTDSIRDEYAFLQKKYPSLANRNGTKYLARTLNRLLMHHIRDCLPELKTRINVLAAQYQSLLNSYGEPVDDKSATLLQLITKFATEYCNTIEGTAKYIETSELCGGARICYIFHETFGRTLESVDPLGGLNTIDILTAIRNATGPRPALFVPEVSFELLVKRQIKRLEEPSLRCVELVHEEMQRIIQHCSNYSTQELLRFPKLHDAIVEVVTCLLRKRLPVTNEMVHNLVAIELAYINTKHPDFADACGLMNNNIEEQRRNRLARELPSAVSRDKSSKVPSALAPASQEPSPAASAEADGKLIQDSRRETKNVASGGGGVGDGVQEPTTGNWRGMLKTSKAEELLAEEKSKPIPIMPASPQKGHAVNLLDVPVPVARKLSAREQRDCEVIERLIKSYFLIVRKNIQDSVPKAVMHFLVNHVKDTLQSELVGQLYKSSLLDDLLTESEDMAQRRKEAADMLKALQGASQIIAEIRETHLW

Molecule: COc1cc(-n2c(=S)[nH]c3ccccc3c2=O)c(Cl)cc1Cl [Mdivi-1, reference compound]
- mitochondrial morphology [1]: These effects were similar to treatment with Mdivi-1
- GTPase activity of Drp1 (Drp1): inhibitor of the GTPase activity of Drp1

Molecule: IIQLPEIVVV [P259 peptide]
- mitochondrial ROS levels (MitoSox) in GFP-positive cells (SH-SY5Y cells): doubled mitochondrial ROS levels

B1: P259 (peptide, UniProt O00429 22-31, looked up)
peptide: IIQLPEIVVV
notes: dynamin related protein 1 (Drp1), residues 22-31, with glutamine 27 replaced by glutamate as found in Mff; The text introduces the TAT carrier only for the cell experiments; whether the in vitro peptide carried it may be told in the Supplementary Methods; also called peptide P259
- Kd [2]: 12 nM
